According to patent publication US20020082254A1, “Compounds for treating disorders where a decreased level of plasma FFA is desired” (priority 2000, published 2002):

Assays:
Lipoprotein lipase (LPL) = target: T1, Lipoprotein lipase (LPL) (Bos taurus, UniProt P11151); experiment: Lipoprotein lipase (LPL) inhibition assay, 3H-triolein/intralipid substrate; type: biochemical; settings: read-out: LPL inhibition (% inh. at 50 μM)
T1 construct: Dr. Gunilla Olivecrona, Umea University (gift)
T1 sequence (P11151 29-478): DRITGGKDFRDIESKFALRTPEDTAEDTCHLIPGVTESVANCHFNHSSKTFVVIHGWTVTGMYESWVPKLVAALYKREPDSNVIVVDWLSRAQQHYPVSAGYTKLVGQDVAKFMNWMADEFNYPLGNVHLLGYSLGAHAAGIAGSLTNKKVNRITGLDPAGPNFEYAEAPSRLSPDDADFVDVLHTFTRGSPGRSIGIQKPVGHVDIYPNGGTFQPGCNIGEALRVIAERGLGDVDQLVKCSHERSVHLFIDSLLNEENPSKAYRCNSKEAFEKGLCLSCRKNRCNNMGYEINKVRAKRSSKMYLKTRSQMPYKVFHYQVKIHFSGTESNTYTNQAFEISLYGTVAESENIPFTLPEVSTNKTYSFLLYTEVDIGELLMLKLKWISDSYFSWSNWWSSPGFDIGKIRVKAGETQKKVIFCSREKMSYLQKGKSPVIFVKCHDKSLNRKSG
From the text: Lipoprotein Lipase (LPL) [Classified as EC 3.1.1.34 in accordance with the Recommendations of the Nomenclature Committee of the International Union of Biochemistry and Molecular Biology (available on the World Wide Web at the following address: http://www.chem.qmw.ac.uk/iubmb/enzyme/)]
Materials. The lipoprotein lipase employed was obtained from Dr. Gunilla Olivecrona of Umea University, Sweden. ^3H-triolein (TO) from Amersham, Buckinghamshire, U.K., cat No. TRA191; 5-20 Ci/mmol dissolved in toluene. Intralipid is from Kabi-Fresenius). Apo CII was obtained from PMSF-treated plasma from overnight fasted rats. All other reagents are of commercial grade and obtained from various commercial sources.
Methods. The preparation of the substrate is as follows:
25 μl of ^3H-Triolein evaporated under a gentle stream of N2 in a 27° C. room in 4 ml chromacol glass followed by the addition of 1 ml 10% intralipid. This is mixed and sonicated on ice for 5 minutes (50% pulse mode). This can be kept for 1 week at 4° C.
100 μl assay medium (0.3M Tris-Cl, 0.2M NaCl, 0.2 mg heparin/ml and 120 mg BSA/ml (fraction V, Sigma no. 3401, pH 8.5))
All mixed in a 13×100 mm glass tube and incubated for at least 5 minutes.
2. Add 5 μl LPL (of a solution containing 500 mU/mg)
Mix and incubate for 30 minutes at 25° C.
3. The reaction is stopped with 3.25 ml of a solution containing Methanol:chloroform:heptan 10:9:7. Add 1.05 ml buffer (100 mM Boric acid, 100 mM potassium carbonate pH 10.5) and mix 10 seconds per vial.
5. Take 1 ml of the upper phase+10 ml scintillation fluid and mix
6. Scintillation count for 5 minutes per vial.

Hepatic lipase (HL) = target: T2, Hepatic lipase (HL) (Homo sapiens, UniProt P11150); experiment: Hepatic lipase (HL) inhibition assay, 3H-triolein substrate; type: biochemical; settings: read-out: HL inhibition (% inh. at 50 μM)
T2 sequence (P11150 23-499): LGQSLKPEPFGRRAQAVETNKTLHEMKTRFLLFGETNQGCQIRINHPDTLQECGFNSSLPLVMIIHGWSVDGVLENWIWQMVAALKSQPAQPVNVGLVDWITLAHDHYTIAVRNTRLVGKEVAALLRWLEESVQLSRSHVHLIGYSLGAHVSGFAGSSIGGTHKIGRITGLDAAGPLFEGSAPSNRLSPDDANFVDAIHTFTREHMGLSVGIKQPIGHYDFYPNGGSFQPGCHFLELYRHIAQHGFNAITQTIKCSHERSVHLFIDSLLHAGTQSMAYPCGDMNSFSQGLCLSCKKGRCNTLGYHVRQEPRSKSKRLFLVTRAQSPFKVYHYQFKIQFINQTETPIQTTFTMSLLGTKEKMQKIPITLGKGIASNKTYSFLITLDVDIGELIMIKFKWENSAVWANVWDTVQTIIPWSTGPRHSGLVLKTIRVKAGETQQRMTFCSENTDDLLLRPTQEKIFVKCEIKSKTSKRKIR
From the text: Hepatic Lipase (HL) [classified as a triacylglycerol lipase, EC 3.1.1.3, in accordance with the Recommendations of the Nomenclature Committee of the International Union of Biochemistry and Molecular Biology (available on the World Wide Web at the following address: http://www.chem.qmw.ac.uk/iubmb/enzyme/)]
Materials. The hepatic lipase employed was obtained from Dr. Howard Wong of the University of California at Los Angeles (UCLA), USA, or produced and purified using the methods and a cell line provided by Dr. Wong's laboratory. ^3H-triolein (TO) from Amersham, Buckinghamshire, U.K., cat No. TRA191; 5-20 Ci/mmol dissolved in toluene and triolein (Sigma, Cat. No. T-1740). All other reagents are of commercial grade and obtained from various commercial sources.
50 μl TO in a 20 ml scintillation vial and evaporate with N2 for 5 minutes.
Add 1 ml 10% gum arabic and 1.25 ml Tris-Cl pH 8.5 and 2 ml MilliQ water.
Sonicate, on ice, 16 times for 30 seconds with a 30-second interval between cycles.
Add 2.5 ml of 5 M NaCl+2.5 ml BSA (10% in Milli Q, pH 8)+3.25 ml Milli Q
Total volume: 12.5 ml (for 80 reactions )
If an inhibitor is going to be used, it should be incubated with the 50 μl HL (of a 125 mU/ml solution) for 70 minutes at 25° C. A 5 μl aliquot from the incubated 50 μl is added to 150 μl assay mix+45 μl Milli Q™ water and mixed.
Incubate for exactly 30 minutes at 25° C.
Stop the reaction with Methanol:chloroform:heptane 10:9:7: 3.25 ml/vial, mix; then add 1.05 ml buffer (100 mM boric acid, 100 mM potassium carbonate pH 10.5), mix for 10 seconds per vial.
Centrifuge for 20 min/2000 rpm
Take 1 ml of the upper phase+10 ml scintillation fluid and mix by shaking by hand.
Scintillation count for 5 minutes per vial.

Compound: O=C(NN1CCc2ccccc2C1)Oc1ccc(Cl)cc1 [Example 6, (3,4-Dihydro-1H-isoquinolin-2-yl)-carbamic acid 4-chloro-phenyl Ester]
- inhibition at 50 µM (Lipoprotein lipase (LPL)): 0%
- inhibition at 50 µM (Hepatic lipase (HL)): 6%

Compound: CC1Cc2ccccc2CN1NC(=O)Oc1ccc(Cl)cc1 (stereo not drawn) [Example 23, (3-Methyl-3,4-dihydro-1H-isoquinolin-2-yl)-carbamic Acid 4-chloro-phenyl Ester]
- inhibition at 50 µM (Lipoprotein lipase (LPL)): 4%
- inhibition at 50 µM (Hepatic lipase (HL)): 4%

Compound: CC(C)(C)OC(=O)Nc1ccc(OC(=O)NN2CCc3ccccc3C2)cc1 [Example 17, (3,4-Dihydro-1H-isoquinolin-2-yl)-carbamic Acid 4-tert-butoxycarbonylamino-phenyl Ester]
- inhibition at 50 µM (Lipoprotein lipase (LPL)): 0%
- inhibition at 50 µM (Hepatic lipase (HL)): 3%
